Like-named read-outs stand apart in the source and are kept apart here. Starred links: 1 amine or outer side, 2 acyl side, 3 side chain; linkers in the order of their positions; H or OH if unused. Positions of bridges follow the written chain, without caps; N, C: chain ends. Non-standard residues stand in square brackets, D forms with d. Residues, ends and D or L forms follow the SMILES beside them. *: point of attachment. hTyr(3S-OH,4S-OH,3'-OSO3H) = N[C@H](C(=O)O)[C@H](O)[C@@H](O)c1ccc(O)c(OS(=O)(=O)O)c1; pTerphenylCO(4''-OnC5H11) = CCCCCOc1ccc(-c2ccc(-c3ccc(C(=O)*)cc3)cc2)cc1; Orn(4R-OH,5R-OH) = O=C([C@H](C[C@@H](O)[C@@H](O)N[*:3])N[*:1])[*:2]; hTyr(3S-OH,4S-OH) = N[C@H](C(=O)O)[C@H](O)[C@@H](O)c1ccc(O)cc1; Pro(3S-OH,4S-Me) = C[C@H]1CN[C@H](C(=O)O)[C@H]1O; X1 = CCCCCOc1ccc(-c2cc(-c3ccc(C(=O)*)cc3)no2)cc1; Gln(3R-OH) = NC(=O)C[C@@H](O)[C@H](N)C(=O)O; Hyp = O=C(O)[C@@H]1C[C@@H](O)CN1
What was measured:
[1] = Concentration in arterial plasma of critically ill adults drawn simultaneously with CSF, HPLC-UV; format: in vivo, human; settings: for AUC(0-t) / half-life / Cmax / Tmax: intravenous; for AUC(0-t): read-out: AUC0–24 in plasma; for half-life: read-out: t1/2 (half-life) in plasma (converted); for Cmax: read-out: Cmax (peak concentration) in plasma; for Tmax: read-out: Tmax (time to Cmax) in plasma
Experimental: CSF was taken during diagnostic lumbar puncture (LP) or via external ventricular drain (EVD) from critically ill adults treated with anidulafungin or micafungin. Simultaneously, we took 2-ml arterial blood samples. CSF and plasma were stored at –80°C.
Anidulafungin and micafungin concentrations were quantified by high-performance liquid chromatography and UV detection (HPLC-UV) as described previously ([5]). Noncompartmental pharmacokinetics was calculated with Kinetica 2000 (InnaPhase Corporation, Champs-sur-Marne, France). The area under the concentration-time curve from 0 to 24 h (AUC0–24) was computed with the log-linear method when the concentration in a trapezoid decreased or with the trapezoidal method when the concentration increased.

[2] = cumulative dose 200 mg; for Cmax (peak concentration) in CSF: steady state not reached
[3] = Stability in brain tissue at 4°C; format: in vitro ADME, human; settings: brain tissue at 4°C (storage temperature of the corpses)
Experimental: (§1) In brain specimens, we cannot rule out minor agonal or postmortem changes of anidulafungin and micafungin concentrations, although anidulafungin and micafungin were stable in the brains of deceased patients for at least 96 h. Brain specimens consist of various compartments, e.g., different cells, extracellular matrix, and blood vessels. Anidulafungin and micafungin were not quantified on a cellular level or in different brain areas. Echinocandin extraction from human brain might yield slightly lower recovery than extraction from external standards. In rats, [^3H]caspofungin brain concentrations were ≤0.16 μg eq/g ([17]). In rabbits, micafungin brain concentrations were <0.19 μg/g, and those of anidulafungin were <4.0 μg/g ([18], [19]). In a biopsy sample of a brain abscess, a micafungin concentration of 0.26 μg/g was measured ([20]).

[4] = Concentration in autopsy samples of cerebral cortex of deceased patients, HPLC-UV; format: in vivo, human
Experimental: The cerebral cortex of deceased patients who had received anidulafungin or micafungin within their last 30 days of life was sampled during autopsy, which is routinely performed for quality assurance in Austrian hospitals. Anidulafungin and micafungin were extracted from 0.2 g of tissue by addition of 250 μl of acetonitrile and 250 μl of methanol (Sigma-Aldrich, Vienna, Austria), homogenization with a Precellys homogenizer (Bertin Instruments, Montigny-le-Bretonneux, France) at 4,500 rpm (twice for 25 s, 2-s break), and centrifugation for 5 min at 8°C and 4,665 × g. For calibration, we used porcine brain samples spiked with anidulafungin or micafungin and homogenized and proceeded in the same manner. Both echinocandins were quantified by HPLC-UV at 306 nm ([5]). The lower limit of quantification was 0.05 μg/g for anidulafungin and 0.10 μg/g for micafungin. The extraction recovery from brain was ∼40% and ∼60% for anidulafungin and micafungin, respectively.

Candida strains = settings: pharmacodynamic target, not achieved in CSF of patients 2 and 5; cited from earlier work
Experimental: In some of the CSF and brain specimens, measured anidulafungin and micafungin concentrations were below the MICs reported for relevant Candida species (i.e., 0.008 to 4.0 μg/ml) ([6]). […] However, the relevance of in vitro MIC values for antifungal activity of echinocandins in CSF and in CNS remains to be clarified. In CSF, protein binding of anidulafungin and micafungin is unk ...

[5] = cited from earlier work
[6] = cited from earlier work; remark: listed apart in the source
Experimental: as §1, with “brain” for “brain concentrations were ≤0.16 μg eq/g ([17]). In rabbits, micafungin brain concentrations were <0.19 μg/g, and those of anidulafungin were <4.0 μg/g ([18], [19]). In a biopsy sample of a brain abscess, a micafungin”, “...” for “of 0.26 μg/g was measured ([20]).”

clinical = settings: human, in vivo, iv
[7] = human, plasma, patient 5, cumulative dose 200 mg, treatment day 2, noncompartmental
[8] = patient 5, external ventricular drainage, treatment day 2, noncompartmental
[9] = human, plasma, patient 2, cumulative dose 200 mg, treatment day 1, noncompartmental
[10] = patient 2, external ventricular drainage, treatment day 1, noncompartmental

CCCCCOc1ccc(-c2cc(-c3ccc(C(=O)N[C@H]4C[C@@H](O)[C@@H](O)NC(=O)[C@@H]5[C@@H](O)[C@@H](C)CN5C(=O)[C@H]([C@H](O)CC(N)=O)NC(=O)[C@H]([C@H](O)[C@@H](O)c5ccc(O)c(OS(=O)(=O)O)c5)NC(=O)[C@@H]5C[C@@H](O)CN5C(=O)[C@H]([C@@H](C)O)NC4=O)cc3)no2)cc1 [micafungin] (X1-[Orn(4R-OH,5R-OH)]T[Hyp][hTyr(3S-OH,4S-OH,3'-OSO3H)][Gln(3R-OH)][Pro(3S-OH,4S-Me)]; lactam 1-C)
AUC(0-t) [1, 7]: 113000 ng·h/mL
half-life [1, 7]: 12.9 h
Cmax ([1]; human, plasma, patient 5, cumulative dose 200 mg, treatment day 2, sampling before and 1, 4, 8, 12, 18, 24 h after start of infusion, steady state not reached): 8700 ng/mL
Tmax ([1]; human, plasma, patient 5, cumulative dose 200 mg, treatment day 2): 1 h
level at 2.5 h ([1]; human, plasma, iv, 1300 mg, patient 6, arterial blood simultaneous with lumbar puncture, cumulative dose 1,300 mg, treatment day 13, 2.5 h from start of infusion, steady state, read-out: Plasma concn): 3510 ng/mL
level at 16 h ([1]; human, plasma, iv, patient 4, arterial blood simultaneous with lumbar puncture, cumulative dose 200 mg, treatment day 2, 16.0 h from start of infusion, steady state not reached, read-out: Plasma concn): 1210 ng/mL
Cmin (trough concentration) in plasma ([1]; patient 5, cumulative dose 200 mg, treatment day 2, steady state not reached): 2160 ng/mL
Tmax (time to Cmax) in CSF ([2]; patient 5, external ventricular drainage, treatment day 2): 4 h
Cmin (trough concentration) in CSF ([2]; patient 5, external ventricular drainage, treatment day 2, LLOQ 0.01 μg/ml): <10 ng/mL
AUC0–24 in CSF [2, 8]: 2010 ng·h/mL
t1/2 (half-life) in CSF [2, 8]: 13.80 h
Cmax (peak concentration) in CSF ([2]; patient 5, external ventricular drainage, treatment day 2, sampling before and 1, 4, 8, 12, 18, 24 h after start of infusion): 160 ng/mL
Time stable in brain tissue [3]: at least 96 h
Time after treatment at which the drug was still measurable in cerebral cortex ([4]; autopsy samples of deceased patients): 10 days
tissue level at time at 712 h ([4]; human, cerebral cortex, 1100 mg, patient 11, cumulative dose 1,100 mg, treatment 19 days, 712 h between last administration and death, 58 h between death and sampling, LLOQ 0.10 μg/g, read-out: Concn in cerebral cortex (autopsy)): < 100 ng/g
tissue level at time at 235 h ([4]; human, cerebral cortex, 4000 mg, patient 16, cumulative dose 4,000 mg, treatment 39 days, 235 h between last administration and death, 29 h between death and sampling, LLOQ 0.10 μg/g, read-out: Concn in cerebral cortex (autopsy)): 190 ng/g
tissue level at time at 111 h ([4]; human, cerebral cortex, intravenous, 1800 mg, patient 13, cumulative dose 1,800 mg, treatment 18 days, 111 h between last administration and death, 38 h between death and sampling, LLOQ 0.10 μg/g, read-out: Concn in cerebral cortex (autopsy)): 180 ng/g
tissue level at time at 230 h ([4]; human, cerebral cortex, intravenous, 5300 mg, patient 12, cumulative dose 5,300 mg, treatment 28 days, 230 h between last administration and death, 85 h between death and sampling, LLOQ 0.10 μg/g, read-out: Concn in cerebral cortex (autopsy)): 1520 ng/g
tissue level at time at 99 h ([4]; human, cerebral cortex, patient 14, cumulative dose 500 mg, treatment 4 days, 25 h between last administration and death, 74 h between death and sampling, LLOQ 0.10 μg/g, read-out: Concn in cerebral cortex (autopsy)): 2880 ng/g
tissue level at time at 324 h ([4]; human, cerebral cortex, patient 15, cumulative dose 300 mg, treatment 3 days, 324 h between last administration and death, 80 h between death and sampling, LLOQ 0.10 μg/g, read-out: Concn in cerebral cortex (autopsy)): < 100 ng/g
Target AUC0–24/MIC ratio suggested (Candida strains): 5,299
CSF concentration ([5]; cerebral aspergillosis, 2-fold maximum dose, 300 mg/day): < 0.02 µg/mL
Concentration in biopsy sample of a brain abscess [6]: 0.26 µg/g
Brain concentrations ([6]; rabbits): < 0.19 µg/g
Kp (clinical; 200 mg): 0.02
Kp at 16 h (clinical; 200 mg): 0.08
level at 16 h (clinical; 200 mg): 90 ng/mL
Kp at 2.5 h (clinical; 1300 mg): 0.03

Caspofungin
Detection in CSF ([5]; human, in vivo): undetectable
Detection in CSF ([5]; in 9 of 11 CSF samples from children with hematological malignancies): undetectable

[^3H]caspofungin
Brain concentrations ([6]; rats): ≤ 0.16 μg eq/g

CCCCCOc1ccc(-c2ccc(-c3ccc(C(=O)N[C@H]4C[C@@H](O)[C@@H](O)NC(=O)[C@@H]5[C@@H](O)[C@@H](C)CN5C(=O)[C@H]([C@@H](C)O)NC(=O)[C@H]([C@H](O)[C@@H](O)c5ccc(O)cc5)NC(=O)[C@@H]5C[C@@H](O)CN5C(=O)[C@H]([C@@H](C)O)NC4=O)cc3)cc2)cc1 [anidulafungin] ({pTerphenylCO(4''-OnC5H11)}-[Orn(4R-OH,5R-OH)]T[Hyp][hTyr(3S-OH,4S-OH)]T[Pro(3S-OH,4S-Me)]; lactam 1-C)
AUC(0-t) [1, 9]: 29400 ng·h/mL
half-life [1, 9]: 14.7 h
Cmax ([1]; human, plasma, patient 2, cumulative dose 200 mg, treatment day 1, sampling before and 1, 4, 8, 12, 18, 24 h after start of infusion, steady state not reached): 2720 ng/mL
Tmax ([1]; human, plasma, patient 2, cumulative dose 200 mg, treatment day 1): 1 h
level at 0.5 h ([1]; human, plasma, iv, 2500 mg, patient 3, arterial blood simultaneous with lumbar puncture, cumulative dose 2,500 mg, treatment day 24, 0.5 h from start of infusion, steady state, read-out: Plasma concn): 5070 ng/mL
level at 3 h ([1]; human, plasma, iv, patient 1, arterial blood simultaneous with lumbar puncture, cumulative dose 300 mg, treatment day 3, 3.0 h from start of infusion, steady state not reached, read-out: Plasma concn): 3830 ng/mL
Cmin (trough concentration) in plasma ([1]; patient 2, cumulative dose 200 mg, treatment day 1, steady state not reached): 770 ng/mL
Tmax (time to Cmax) in CSF ([2]; patient 2, external ventricular drainage, treatment day 1): 1 h
AUC0–24 in CSF [2, 10]: 2090 ng·h/mL
t1/2 (half-life) in CSF [2, 10]: 7.90 h
Cmax (peak concentration) in CSF ([2]; patient 2, external ventricular drainage, treatment day 1, sampling before and 1, 4, 8, 12, 18, 24 h after start of infusion): 660 ng/mL
Cmin (trough concentration) in CSF ([2]; patient 2, external ventricular drainage, treatment day 1, steady state not reached): 30 ng/mL
Time stable in brain tissue [3]: at least 96 h
tissue level at time at 29 h ([4]; human, cerebral cortex, 1200 mg, patient 10, cumulative dose 1,200 mg, treatment 11 days, 29 h between last administration and death, 21 h between death and sampling, LLOQ 0.05 μg/g, read-out: Concn in cerebral cortex (autopsy)): 1580 ng/g
tissue level at time at 12 h ([4]; human, cerebral cortex, 1500 mg, patient 9, cumulative dose 1,500 mg, treatment 14 days, 12 h between last administration and death, 15 h between death and sampling, LLOQ 0.05 μg/g, read-out: Concn in cerebral cortex (autopsy)): 2340 ng/g
tissue level at time at 313 h ([4]; human, cerebral cortex, 1800 mg, patient 8, cumulative dose 1,800 mg, treatment 17 days, 313 h between last administration and death, 25 h between death and sampling, LLOQ 0.05 μg/g, read-out: Concn in cerebral cortex (autopsy)): 280 ng/g
tissue level at time at 32 h ([4]; human, cerebral cortex, patient 7, cumulative dose 700 mg, treatment 6 days, 32 h between last administration and death, 14 h between death and sampling, LLOQ 0.05 μg/g, read-out: Concn in cerebral cortex (autopsy)): 210 ng/g
Target AUC0–24/MIC ratio suggested (Candida strains): 2,782
Brain concentrations ([6]; rabbits): < 4.0 µg/g
Kp (clinical; 200 mg): 0.07
Kp at 3 h (clinical; 300 mg): 0.01
Kp at 0.5 h (clinical; 2500 mg): < 0.002
